≈ marks a conversion by molar mass, not a printed value. Counter-ions that a name gives are not always drawn. Like-named read-outs stand apart in the source and are kept apart here.
How the values were obtained:
[1] = Solubility test by UV-Vis spectroscopy of saturated solutions; assay type: physicochemical; details: saturated solution; for solubility: thermodynamic from solid
Description: All UV-Vis measurements were carried out with an Agilent Cary 60 UV-Vis 2.00 between 800-200 nm. The absorbance was measured with a scan rate of 300.0 nm/min, a data interval of 0.50 nm and an UV-Vis Average Time of 0.10 s. For all measurements a cuvette with 10 mm light path was used. A calibration curve was plotted from several different concentrations and the solubility of the respective compound was determined by measuring the absorbance of a diluted saturated solution. As a blank curve a mixture of ultrapure water and ethanol in a ratio of 1:1 or 5:95 was recorded. For the calibration curve a 100 μM or a 10 μM solution of the compound in an ultrapure water:ethanol (1:1) or (5:95)-mixture was prepared and diluted to obtain at least 6 concentrations. […] The supernatant was taken using a syringe and filtered through a syringe filter (RC Membrane). The saturated solution was diluted with ultrapure water and ethanol to obtain an appropriate concentration in a water:ethanol (1:1) or (5:95)-mixture. The long wave absorbance maximum was used for determination of the solubility (mean values, determination in triplicate). […] By plotting the concentration of the solution against the absorbance values at the previously determined wavelength maximum a calibration curve was obtained (FIG. 1B).

human FLT3-ITD = molecular target: T1, human FLT3-ITD (Homo sapiens, UniProt P36888); experiment: Enzymatic kinase assay FLT3 (ITD), 10-dose IC50 mode (Reaction Biology); assay type: biochemical
T1 sequence (P36888 1-993): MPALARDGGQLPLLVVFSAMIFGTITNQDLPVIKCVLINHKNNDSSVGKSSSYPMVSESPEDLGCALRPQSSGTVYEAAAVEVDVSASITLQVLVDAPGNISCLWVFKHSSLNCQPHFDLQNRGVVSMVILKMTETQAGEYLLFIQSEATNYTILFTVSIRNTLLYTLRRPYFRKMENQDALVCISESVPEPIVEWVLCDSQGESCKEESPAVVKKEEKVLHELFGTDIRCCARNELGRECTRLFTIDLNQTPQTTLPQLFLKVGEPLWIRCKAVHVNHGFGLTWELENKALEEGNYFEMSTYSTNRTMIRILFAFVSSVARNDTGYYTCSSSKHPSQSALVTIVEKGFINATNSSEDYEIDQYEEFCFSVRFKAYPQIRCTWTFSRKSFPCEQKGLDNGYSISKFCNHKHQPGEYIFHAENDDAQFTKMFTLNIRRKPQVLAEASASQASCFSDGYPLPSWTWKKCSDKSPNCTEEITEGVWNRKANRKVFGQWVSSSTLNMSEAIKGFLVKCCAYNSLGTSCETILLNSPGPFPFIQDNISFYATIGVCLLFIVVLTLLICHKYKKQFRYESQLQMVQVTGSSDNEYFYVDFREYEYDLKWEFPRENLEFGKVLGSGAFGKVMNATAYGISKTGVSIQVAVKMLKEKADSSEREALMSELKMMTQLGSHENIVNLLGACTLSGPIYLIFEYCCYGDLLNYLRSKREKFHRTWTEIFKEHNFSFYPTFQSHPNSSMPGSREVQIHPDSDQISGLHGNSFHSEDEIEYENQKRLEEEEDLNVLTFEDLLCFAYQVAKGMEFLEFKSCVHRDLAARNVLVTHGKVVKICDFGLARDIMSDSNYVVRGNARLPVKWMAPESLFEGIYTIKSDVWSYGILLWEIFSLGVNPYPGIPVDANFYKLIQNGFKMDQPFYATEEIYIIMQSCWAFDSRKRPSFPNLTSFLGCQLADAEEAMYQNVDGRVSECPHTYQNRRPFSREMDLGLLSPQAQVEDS

[2] = Solubility test by UV-Vis spectroscopy of saturated solutions; assay type: physicochemical; details: solvent DMSO
[3] = system: subcutaneous MV4-11 CDX model; experiment: In vivo efficacy study in subcutaneous MV4-11 CDX model in NOD/SCID mice; details: 50 mg/kg po daily 5 days
[4] = ethanol, organic solvent or mixture, ethanol, read-out: Solubility Ethanol
[5] = ultrapure water, water, ultrapure water, read-out: Solubility Water
[6] = read-out: IC50 FLT3 (ITD); 10 μM ATP
[7] = ethanol, 2,2,2-trifluoroacetate
[8] = 10 μM ATP; read-out: IC50 FLT3 (ITD)

Question: With `CC(C)(C)c1cc(NC(=O)Nc2ccc3oc(C(=O)c4cc5c(CN6CCCCC6)c(OC(=O)N6CCC(N7CCCCC7)CC6)ccc5[nH]4)cc3c2)no1` [Compound 39a, 2-(5-(3-(5-(tert-Butyl)isoxazol-3-yl)ureido)benzofuran-2-carbonyl)-4-(piperidin-1-ylmethyl)-1H-indol-5-yl [1,4′-bipiperidine]-1′-carboxylate] as the compound, how does the solubility [1, 4] read?
Answer: 1590 µg/mL (≈ 2120 µM)

Question: What about the solubility [1, 5] of the same compound?
Answer: < 100 µg/mL

Question: And the IC50 (human FLT3-ITD; [6])?
Answer: 1.14 nM

Question: Which IC50 (human FLT3-ITD; read-out: IC50 FLT3 (ITD); 10 μM ATP; Dihydrochloride) does the source give for `CC(C)(C)c1cc(NC(=O)Nc2ccc3oc(C(=O)c4cc5c(CN6CCOCC6)c(OC(=O)N6CCC(N7CCCCC7)CC6)ccc5[nH]4)cc3c2)no1` [Compound 38c, 2-(5-(3-(5-(tert-Butyl)isoxazol-3-yl)ureido)benzofuran-2-carbonyl)-4-(morpholinomethyl)-1H-indol-5-yl [1,4′-bipiperidine]-1′-carboxylate Dihydrochloride] here?
Answer: 1.51 nM

Question: For `CC(C)(C)c1cc(NC(=O)Nc2ccc3oc(C(=O)c4cc5c(CN6CCOCC6)c(O)ccc5[nH]4)cc3c2)no1` [Compound 30b, 1-(5-(tert-Butyl)isoxazol-3-yl)-3-(2-(5-hydroxy-4-(morpholinomethyl)-1H-indole-2-carbonyl)benzofuran-5-yl)urea 2,2,2-trifluoroacetate], which solubility [1, 4] is on record?
Answer: 2570 µg/mL (≈ 4610 µM)

Question: What about the solubility [1, 5] of the same compound?
Answer: 140 µg/mL (≈ 251 µM)

Question: What about the “Solubility DMSO” value [2] of the same compound?
Answer: Soluble

Question: With `CC(C)(C)c1cc(NC(=O)Nc2ccc3oc(C(=O)c4cc5c(CN6CCOCC6)c(OC(=O)N6CCC(N7CCCCC7)CC6)ccc5[nH]4)cc3c2)no1` [Compound 38a, 2-(5-(3-(5-(tert-Butyl)isoxazol-3-yl)ureido)benzofuran-2-carbonyl)-4-(morpholinomethyl)-1H-indol-5-yl[1,4′-bipiperidine]-1′-carboxylate] as the compound, how does the solubility [1, 4] read?
Answer: 890 µg/mL (≈ 1180 µM)

Question: And the solubility [1, 5]?
Answer: < 100 µg/mL

Question: For `CC(C)(C)c1cc(NC(=O)Nc2ccc3oc(C(=O)c4cc5c(CN6CCCC6)c(O)ccc5[nH]4)cc3c2)no1` [Compound 32b, 1-(5-(tert-Butyl)isoxazol-3-yl)-3-(2-(5-hydroxy-4-(pyrrolidin-1-ylmethyl)-1H-indole-2-carbonyl)benzofuran-5-yl)urea 2,2,2-trifluoroacetate], which “Solubility Ethanol” value [1, 7] is on record?
Answer: 2400 µg/mL (≈ 4430 µM)

Question: For `CN1CCN(Cc2c(OC(=O)N3CCC(N4CCCCC4)CC3)ccc3[nH]c(C(=O)c4cc5cc(NC(=O)Nc6cc(C(C)(C)C)on6)ccc5o4)cc23)CC1` [Compound 41c, 2-(5-(3-(5-(tert-Butyl)isoxazol-3-yl)ureido)benzofuran-2-carbonyl)-4-((4-methylpiperazin-1-yl)methyl)-1H-indol-5-yl [1,4′-bipiperidine]-1′-carboxylate Trihydrochloride], which IC50 (human FLT3-ITD; read-out: IC50 FLT3 (ITD); 10 μM ATP; Trihydrochloride) is on record?
Answer: 0.5 nM

Question: What does the source list for `CC(C)(C)c1cc(NC(=O)Nc2ccc3oc(C(=O)c4cc5c(CN6CCCC6)c(O)ccc5[nH]4)cc3c2)no1` [Compound 32a, 1-(5-(tert-Butyl)isoxazol-3-yl)-3-(2-(5-hydroxy-4-(pyrrolidin-1-ylmethyl)-1H-indole-2-carbonyl)benzofuran-5-yl)urea]?
Answer: Solubility Ethanol ([1]; ethanol): 910 µg/mL (≈ 1680 µM); solubility [1, 5]: < 100 µg/mL; Solubility DMSO [2]: Soluble

Question: With `CN(C)Cc1c(OC(=O)N2CCC(N3CCCCC3)CC2)ccc2[nH]c(C(=O)c3cc4cc(NC(=O)Nc5cc(C(C)(C)C)on5)ccc4o3)cc12` [Compound 42a, 2-(5-(3-(5-(tert-Butyl)isoxazol-3-yl)ureido)benzofuran-2-carbonyl)-4-((dimethylamino)methyl)-1H-indol-5-yl [1,4′-bipiperidine]-1′-carboxylate] as the compound, how does the IC50 (human FLT3-ITD; [6]) read?
Answer: 1.23 nM

Question: Which IC50 (human FLT3-ITD; [8]) does the source give for `CC(C)(C)c1cc(NC(=O)Nc2ccc3oc(C(=O)c4cc5c(CN6CCOCC6)c(O)ccc5[nH]4)cc3c2)no1` [Compound 30c, 1-(5-(tert-Butyl)isoxazol-3-yl)-3-(2-(5-hydroxy-4-(morpholinomethyl)-1H-indole-2-carbonyl)benzofuran-5-yl)urea hydrochloride] here?
Answer: 2 nM

Question: For `CC(C)(C)c1cc(NC(=O)Nc2ccc3oc(C(=O)c4cc5c(CN6CCCCC6)c(O)ccc5[nH]4)cc3c2)no1` [Compound 31a, 1-(5-(tert-Butyl)isoxazol-3-yl)-3-(2-(5-hydroxy-4-(piperidin-1-ylmethyl)-1H-indole-2-carbonyl)benzofuran-5-yl)urea], which solubility [1, 4] is on record?
Answer: 2200 µg/mL (≈ 3960 µM)

Question: And the solubility [1, 5]?
Answer: < 100 µg/mL

Question: What about the “Solubility DMSO” value [2] of the same compound?
Answer: Soluble

Question: For `CC(C)(C)c1cc(NC(=O)Nc2ccc3oc(C(=O)c4cc5c(CN6CCCCC6)c(O)ccc5[nH]4)cc3c2)no1` [Compound 31b, 1-(5-(tert-Butyl)isoxazol-3-yl)-3-(2-(5-hydroxy-4-(piperidin-1-ylmethyl)-1H-indole-2-carbonyl)benzofuran-5-yl)urea 2,2,2-trifluoroacetate], which “Solubility Ethanol” value [1, 7] is on record?
Answer: 1890 µg/mL (≈ 3400 µM)

Question: For `CN(C)Cc1c(O)ccc2[nH]c(C(=O)c3cc4cc(NC(=O)Nc5cc(C(C)(C)C)on5)ccc4o3)cc12` [Compound 34a, 1-(5-tert-Butylisoxazol-3-yl)-3-(2-(4-((dimethylamino)methyl)-5-hydroxy-1H-indole-2-carbonyl)benzofuran-5-yl)urea], which IC50 (human FLT3-ITD; [8]) is on record?
Answer: 1.51 nM

Question: With `CC(C)(C)c1cc(NC(=O)Nc2ccc3oc(C(=O)c4cc5c(CN6CCCC6)c(OC(=O)N6CCC(N7CCCCC7)CC6)ccc5[nH]4)cc3c2)no1` [Compound 40a, 2-(5-(3-(5-(tert-Butyl)isoxazol-3-yl)ureido)benzofuran-2-carbonyl)-4-(pyrrolidin-1-ylmethyl)-1H-indol-5-yl [1,4′-bipiperidine]-1′-carboxylate] as the compound, how does the solubility [1, 4] read?
Answer: 1240 µg/mL (≈ 1690 µM)

Question: And the solubility [1, 5]?
Answer: < 100 µg/mL

Question: What about the IC50 (human FLT3-ITD; [6]) of the same compound?
Answer: 1.15 nM

Question: Which “first death(s) (day of study)” value [3] does the source give for `CO[C@@H]1[C@H](N(C)C(=O)c2ccccc2)C[C@H]2O[C@]1(C)n1c3ccccc3c3c4c(c5c6ccccc6n2c5c31)C(=O)NC4` [Midostaurin, reference compound] here?
Answer: 520000 s

Question: What about the “second death (day of study)” value [3] of the same compound?
Answer: 9 days

Question: And the “number of living subjects, day of study 5” value ([3]; 5 mice)?
Answer: 5

Question: And the “number of living subjects, day of study 6” value ([3]; 5 mice)?
Answer: 4

Question: What about the “number of living subjects, day of study 8” value ([3]; 5 mice) of the same compound?
Answer: 4

Question: What about the “number of living subjects, day of study 13” value ([3]; 5 mice) of the same compound?
Answer: 3

Question: And the “number of living subjects, day of study 26” value ([3]; 5 mice)?
Answer: 3

Question: What about the “number of living subjects, day of study 36” value ([3]; 5 mice) of the same compound?
Answer: 0

Question: For `CCN1CCN(Cc2c(O)ccc3[nH]c(C(=O)c4cc5cc(NC(=O)Nc6cc(C(C)(C)C)on6)ccc5o4)cc23)CC1` [Compound 69b], which “Solubility Ethanol” value ([1]; ethanol) is on record?
Answer: 4410 µg/mL (≈ 7540 µM)

Question: And the “Solubility Water” value ([1]; ultrapure water)?
Answer: 100 µg/mL (≈ 171 µM)

Question: What about the “Solubility DMSO” value [2] of the same compound?
Answer: Soluble

Question: With `CC(C)N1CCN(Cc2c(O)ccc3[nH]c(C(=O)c4cc5cc(NC(=O)Nc6cc(C(C)(C)C)on6)ccc5o4)cc23)CC1` [Compound 70b, 1-(5-(tert-Butyl)isoxazol-3-yl)-3-(2-(5-hydroxy-4-((4-isopropylpiperazin-1-yl)methyl)-1H-indole-2-carbonyl)benzofuran-5-yl)urea bis(2,2,2-trifluoroacetate)] as the compound, how does the “Solubility Ethanol” value ([1]; ethanol, bis(2,2,2-trifluoroacetate)) read?
Answer: 1820 µg/mL (≈ 3040 µM)

Question: And the “Solubility Water” value ([1]; ultrapure water, bis(2,2,2-trifluoroacetate))?
Answer: 370 µg/mL (≈ 618 µM)

From patent US20260184702A1, “SYNTHESIS, PHARMACOLOGY AND USE OF NEW WATER-SOLUBLE AND SELECTIVE FMS-LIKE TYROSINE KINASE3 (FLT3) INHIBITORS” (Universität Regensburg, priority 2022, published 2026)
